Where two headings read alike, the source gives them in different places. Where no end group is shown, it is not given here. Some results are limits rather than exact numbers.

Results on seven substances are retold here after publication PMC5415599, “New Potent Membrane-Targeting Antibacterial Peptides from Viral Capsid Proteins” (Frontiers in Microbiology, 2017).

Test [1] concerns Pseudomonas aeruginosa (P. aeruginosa) ATCC 27853. The test is classed as cell-based. To be noted: MHB, 5 × 10^5 CFU/mL, 37°C, 18 h, triplicate. The protocol: (§1) The antibacterial activity of the vCPPs was tested using a standard broth microdilution procedure ([Wikler et al., 2006]; [Wiegand et al., 2008]) to evaluate the bacterial growth inhibition and determine the minimal inhibitory concentration (MIC). The assay was performed using the following strains: Gram-positive Staphylococcus aureus (S. aureus) ATCC 25923 and methicillin-resistant Staphylococcus aureus (MRSA) ATCC 33591, and Gram-negative Escherichia coli (E. coli) ATCC 25922 and Pseudomonas aeruginosa (P. aeruginosa) ATCC 27853, obtained from American Type Culture Collection (ATCC) (Manassas, VA, USA). Bacterial suspensions were prepared by direct suspension of morphologically similar colonies on Mueller Hinton Broth (MHB) from BD (Franklin Lakes, NJ, USA) to a final concentration of 1 × 10^6 CFU/mL, and added to a sterile 96-well microtiter polypropylene plate from Corning (Corning, NY, USA) containing two-fold dilutions of each peptide. Final bacterial concentration was 5 × 10^5 CFU/mL whereas peptide concentrations ranged between 100 and 0.78 μM. The 96-well plate was incubated at 37°C for 18 h. The MIC was defined as the lowest peptide concentration required to inhibited visible bacterial growth. The assay was performed in triplicate.

Test [2] relates to Escherichia coli (E. coli) ATCC 25922. The test is classed as cell-based. To be noted: MHB, 5 × 10^5 CFU/mL, 37°C, 18 h, triplicate. As for the experimental part: as §1
In test [3] the test system is methicillin-resistant Staphylococcus aureus (MRSA) ATCC 33591. The test is classed as cell-based. The following applies: MHB, 5 × 10^5 CFU/mL, 37°C, 18 h, triplicate. As for the experimental part:
as §1

In test [4] the test system is P. aeruginosa. Kind of test: Time-kill assay. The test is classed as cell-based, Pseudomonas aeruginosa. To be noted: peptide at its MBC, after 180 min, MHB, 37°C, relative to control without peptide, three independent experiments. As for the experimental part:
(§2) For viral protein-derived peptides displaying bactericidal activity, bacterial killing kinetics was determined by a conventional method based on colony counts obtained after different times of exposure of the bacterial cells to the peptides ([Barry et al., 1999]). The assay was performed using S. aureus and P. aeruginosa as representative strains of Gram-positive and Gram-negative bacteria, respectively. Bacterial suspensions prepared in MHB at 5 × 10^5 CFU/mL were treated with each peptide at final concentrations corresponding to their MBC, and incubated at 37°C and 200 rpm. A control of bacterial suspensions without peptide was performed under the same conditions. Aliquots of untreated and peptide-treated bacterial suspensions were withdrawn at 0, 15, 30, 60, 120, and 180 min, serially diluted in MHB, and plated on TSA plates. Bacterial colonies were counted after 24 h of incubation at 37°C. Viable bacteria (in CFU/mL) are reported as percentage of the control. The assay was performed in triplicate.

Test [5] has as its system S. aureus. Kind of test: Time-kill assay. The test is classed as cell-based, Staphylococcus aureus. To be noted: peptide at its MBC, after 30 min, MHB, 37°C, relative to control without peptide, three independent experiments. As for the experimental part: as §2
Test [6] has as its system P. aeruginosa. The test is classed as cell-based. To be noted: for bactericidal or bacteriostatic: bactericidal when MBC is equal or lower than four-fold MIC; for MBC: lowest concentration causing ≥99.9% cell death of the inoculum, TSA plates, 37°C, 24 h, triplicate. The protocol:
(§3) After the MIC assay, aliquots were removed from the wells with no visible bacterial growth, serially diluted in MHB, plated on nutrient-rich trypcase soy agar (TSA) plates from bioMérieux (Marcy l’Etoile, France), and incubated at 37°C for 24 h. […] The assay was performed in triplicate.

In test [7] the test system is S. aureus. The test is classed as cell-based, Staphylococcus aureus. The following applies: for bactericidal or bacteriostatic: bactericidal when MBC is equal or lower than four-fold MIC; for MBC: lowest concentration causing ≥99.9% cell death of the inoculum, TSA plates, 37°C, 24 h, triplicate. As for the experimental part: as §3
In test [8] the test system is Pseudomonas aeruginosa (P. aeruginosa) ATCC 27853. To be noted: previous screen, ref Freire et al., 2015a; cited from earlier work.
In test [9] the test system is P. aeruginosa cells. Nature of the test: Atomic force microscopy (AFM) imaging. The test is classed as cell-based, Pseudomonas aeruginosa. The following applies: 1 h, 37°C. The protocol:
Atomic force microscopy (AFM) imaging was used to study the effect of the bactericidal viral protein-derived peptides on P. aeruginosa cells. Bacterial suspensions at 1 × 10^8 CFU/mL in MHB were centrifuged for 10 min at 4000 × g, and the pellet resuspended in HEPES buffer to a final concentration of 1 × 10^7 CFU/mL. The bacterial suspensions were treated with each peptide at concentrations corresponding to their MBC, as well as the concentrations above and below their MBC, and incubated for 1 h at 37°C and 200 rpm. As control, untreated bacterial suspension was also incubated using the same conditions. A 200 μL droplet of each test sample was applied on a poly-L-lysine-coated glass slide and allowed to deposit for 20 min at room temperature. Each sample was then rinsed 10 times with sterile Milli-Q water and allowed to dry for 30 min at room temperature. AFM images were acquired using a JPK NanoWizard II (Berlin, Germany) mounted on a Zeiss Axiovert 200 inverted microscope (Göttingen, Germany). Measurements were carried out in air and in intermittent contact mode using uncoated silicon ACL cantilevers from APPNano (Mountain View, CA, USA). ACL cantilevers had typical resonance frequencies of 190 kHz and a spring constant of 45 N/m. Bacteria were first visualized through the optical microscope before being selected for imaging. On average, 14 untreated bacteria and 10 individual bacterial cells were imaged for each peptide concentration, with a total area of 4 μm × 4 μm from three independent bacterial preparation slides. Height images were recorded and treated with JPK SPM data processing 5.1.8.

Test [10] relates to Staphylococcus aureus (S. aureus) ATCC 25923. To be noted: previous screen, ref Freire et al., 2015a; cited from earlier work.
The subject of test [11] is P. aeruginosa. Kind of test: SYTOX Green uptake assay (membrane permeabilization, flow cytometry). The test is classed as cell-based, Pseudomonas aeruginosa. To be noted: P. aeruginosa 5 × 10^5 CFU/mL in 10 mM HEPES pH 7.4, 150 mM NaCl, 1 h, 37°C, twofold dilutions starting at MBC. As for the experimental part:
SYTOX® Green (Invitrogen, Carlsbad, CA, USA) is a high-affinity nucleic acid stain that only penetrates cells with compromised plasma membranes and emits fluorescence when bound to DNA ([Roth et al., 1997]). A SYTOX Green uptake assay ([Torcato et al., 2013]; [Sani et al., 2015]) was performed using P. aeruginosa to study the effect of viral protein-derived peptides on those bacterial membranes. Bacterial suspensions at 1 × 10^8 CFU/mL in MHB were centrifuged for 10 min at 4000 × g and the pellet resuspended in 10 mM HEPES buffer, pH 7.4, containing 150 mM NaCl, to a final concentration of 5 × 10^5 CFU/mL. The bacterial suspensions were incubated for 1 h at 37°C and 200 rpm, with twofold dilutions of each bactericidal viral protein-derived peptide in a range of concentrations starting at their corresponding MBC. Peptide-treated bacterial cells were incubated with 0.1 μM of SYTOX Green for 10 min, on ice and protected from light. The fluorescence emission intensity signal was measured by flow cytometry (excitation with 488 nm laser and detection at 530 nm with 30 nm bandpass) and a total of 50 000 events were recorded. […] The percentage of permeabilized cells was determined considering that untreated bacterial cells (negative control) are 0% permeabilized and bacterial cells treated with isopropyl alcohol (positive control) are 100% permeabilized. […]
For orientation: A flow cytometer gives signals particle by particle.

Test [12] deals with Staphylococcus aureus (S. aureus) ATCC 25923. The test is classed as cell-based. The following applies: MHB, 5 × 10^5 CFU/mL, 37°C, 18 h, triplicate. The protocol:
as §1

Test [13] has as its system MRSA. The test is classed as cell-based, Staphylococcus aureus. The following applies: for bactericidal or bacteriostatic: bactericidal when MBC is equal or lower than four-fold MIC; for MBC: lowest concentration causing ≥99.9% cell death of the inoculum, TSA plates, 37°C, 24 h, triplicate. The protocol:
as §3

For test [14], the system named is E. coli. The test is classed as cell-based, Escherichia coli. The following applies: for bactericidal or bacteriostatic: bactericidal when MBC is equal or lower than four-fold MIC; for MBC: lowest concentration causing ≥99.9% cell death of the inoculum, TSA plates, 37°C, 24 h, triplicate. The protocol:
as §3

For the substance GRRGPRRANQNGTRRRRRRT-NH2 [vCPP 1779], the MIC in test [1] was 25 µM; in test [2], 25 µM; in [3] it was greater than 100 µM.
INWKKWWQVFYTVV-NH2 [vAMP 059]: the “reduction of bacterial viability” value in test [4] is listed as 99.7%. Besides, the “reduction in bacterial viability” value in test [5] is 99.9%. Also, the bactericidal or bacteriostatic result in test [6] and in test [7] was “bactericidal” in each case. Further, the minimal bactericidal concentration (MBC) was found to be 6.25 µM in test [6] and 1.56 µM in test [7]. Further, the minimum inhibitory concentration (MIC) is 6.25 µM in [8] and 0.78 µM in [10]. Further, in test [9] (all concentrations tested (MBC, above and below)), the “morphological changes of cell envelope (AFM)” value is listed as “pronounced collapse in P. aeruginosa cell envelope”. Besides, the “membrane permeabilization (SYTOX Green)” value in test [11] was “increase in membrane permeabilization with increasing peptide concentrations”.
KKRYKKKYKAYKPYKKKKKF-NH2 [vCPP 0275]: the minimal inhibitory concentration (MIC) was 25 to 50 µM in test [12], 100 µM in test [1], 12.5 µM in test [2] and 50 µM in test [3].
As to RPRRRATTRRRITTGTRRRR-NH2 [vCPP 0667], the minimum inhibitory concentration (MIC) is 50 µM in test [12], 25 µM in [1], 12.5 µM in test [2] and 100 µM in [3].
Take RRLTLRQLLGLGSRRRRRSR-NH2 [vCPP 0769]: the bactericidal or bacteriostatic entry is listed as “bactericidal” in [6], “only inhibited bacterial growth” in [7], “only inhibited bacterial growth” in [13] and “bactericidal” in test [14]. Moreover, the minimum bactericidal concentration (MBC) in [6] was 6.25 µM; in test [7] it was greater than 100 µM; in test [13], greater than 100 µM; in [14] it was 50 µM. The minimal inhibitory concentration (MIC) came out at 3.13 µM in [12], 3.13 µM in [1], 25 µM in test [2] and 3.13 µM in test [3].
As for SPRRRTPSPRRRRSQSPRRR-NH2 [vCPP 0417], the MIC is greater than 100 µM in [12], 100 µM in [1], 25 µM in test [2] and greater than 100 µM in test [3].
For WRRRYRRWRRRRRWRRRPRR-NH2 [vCPP 2319], the “reduction of bacterial viability” value in test [4] turned out to be 97%. Besides, the “reduction in bacterial viability” value in [5] stood at 90.9%. Also, the bactericidal or bacteriostatic entry in test [6], in test [7], in [13] and in test [14] was “bactericidal” throughout. For the same substance, the minimum bactericidal concentration (MBC) in test [6], in test [7], in test [13] and in test [14] was 3.13 µM in each case. Besides, the “morphological changes of cell envelope (AFM)” value is “only minor alterations on bacterial topography” in [9] (1.56 μM, a concentration below MBC) and “marked collapse of the membrane structure” in test [9] (treatment with MBC, or higher). The minimal inhibitory concentration (MIC) in test [12] is 1.56 µM; in test [1] it was 3.13 µM; in [2] it was 3.13 µM; in test [3], 1.56 µM. For the same substance, the “membrane permeabilization (SYTOX Green)” value in test [11] is recorded as “increase in membrane permeabilization with increasing peptide concentrations”.

For orientation: MIC means the least concentration at which growth counts as inhibited. As usually defined, the MBC is the lowest tested concentration that kills the bacteria rather than only halting them. A high value points to less potent killing.
